{"source": "paper PMC6696947", "about": "(European journal of pharmacology, 2019)", "key": {"[1]": {"tested_on": "rats", "test": "Acetic acid-induced writhing model", "format": "in vivo, male Sprague-Dawley rats", "details": "test compound 20 mg/kg p.o.; morphine 10 mg/kg i.p.; Student's t-test, P<0.05"}, "[2]": {"tested_on": "rats", "test": "Hot plate model", "format": "in vivo, male Sprague-Dawley rats", "details": "JT07/JT09 20 mg/kg p.o.; morphine 10 mg/kg i.p.; %MPE, 53.0 °C, cut-off 30 s"}, "[3]": {"tested_on": "rats", "test": "Locomotor open field test", "details": "JT09 20 mg/kg p.o.; morphine 10 mg/kg i.p."}, "[4]": {"tested_on": "rats", "test": "Self-administration model", "format": "in vivo, male Sprague-Dawley rats", "details": "n=8"}, "[5]": {"details": "no reference given, cited from earlier work"}, "[6]": {"details": "no reference given, cited from earlier work", "remark": "listed apart in the source"}, "[7]": {"details": "no reference given; cited from earlier work"}, "[8]": {"tested_on": "rats", "details": "positive control; ref Carlezon et al., 2006; Curzon et al., 2009; cited from earlier work"}}, "note": "Entries after “also recorded” stand apart in the source; their conditions may differ."}
{"molecule": "CN1CC[C@]23c4c5ccc(O)c4O[C@H]2[C@@H](O)C=C[C@H]3[C@H]1C5", "note": "[morphine]", "values": [{"measurement": "potency/efficacy versus morphine in writhing (peripheral pain)", "setting": "[1]", "result": "comparable analgesic activity"}, {"measurement": "analgesic activity in hot plate model", "setting": "[2]", "result": "potent analgesic"}, {"measurement": "sedation (in words)", "setting": "[3]", "result": "highly sedative"}]}
{"molecule": "COC(=O)[C@H]1[C@@H](OC(=O)c2ccccc2)C[C@@H]2CC[C@H]1N2C", "note": "[cocaine]", "values": [{"measurement": "number of cocaine infusions / active lever presses over 7 days", "setting": "[4]; cocaine 50ug/50ul bolus after JT09, nose poke, F(6,42)=4.6, P<0.0012", "result": "number of cocaine infusions increased over the 7 days; also recorded: number of cocaine active lever presses increased over the 7 days; also recorded: expected increase in the number of lever presses over the seven-day period"}, {"measurement": "cocaine infusions / active lever presses on days 6 and 7", "setting": "[4]; cocaine after JT09, Dunnett post hoc, P<0.05", "result": "significantly more infusion on days 6 and 7; also recorded: significantly more active lever presses on days 6 and 7"}]}
{"molecule": "D-Phe-D-Phe-D-Nle-D-Arg-NH2 [CR665]", "values": [{"measurement": "peripheral to central selectivity in analgesic models (in words)", "setting": "[5]; i.v., background statement in abstract", "result": "high peripheral to central selectivity"}, {"measurement": "peripheral-selectivity", "setting": "[5]; peripheral versus central", "result": 548, "unit": "fold"}, {"measurement": "oral activity (in words)", "setting": "[6]; background statement in abstract", "result": "inactive when administered orally"}, {"measurement": "oral bioavailability (in words)", "setting": "[6]", "result": "does not have significant oral bioavailability"}, {"measurement": "efficacy in visceral and neuropathic pain (in words)", "setting": "[7]", "result": "has demonstrated efficacy in the treatment of visceral and neuropathic pain without the negative side-effects of centrally acting KOAs"}]}
{"molecule": "COC(=O)[C@@H]1C[C@H](OC(C)=O)C(=O)[C@H]2[C@@]1(C)CC[C@H]1C(=O)O[C@H](c3ccoc3)C[C@]21C", "note": "[Salvinorin A]", "values": [{"measurement": "depressant-like effects (in words)", "setting": "[8]", "result": "known depressant-like effects at high dose levels, such as dysphoria"}]}
